# Laboratory results published in BindingDB's records for doi:10.7270/Q24B305P (D3R/Abbott, 2015).
# Biological target: T1, Urokinase-type plasminogen activator [179-424,C299A,N323Q] (Human, UniProt P00749, C299A/N323Q)
# T1 construct: 179-424
# Experiment: Photometric_Method1
row,SMILES,Ki [nM]
1,CS(=O)(=O)n1cc(-c2cc(C(=O)Nc3ccccc3)cc3ccc(C(=N)N)cc23)cn1 [uPa_20],769
2,COc1cc2ccc(C(=N)N)cc2c(OC)c1OC [uPa_2],8030
3,COc1cc(NC(=O)c2ccc3cc(C(=N)N)ccc3c2)cc(OC(C)C)c1 [uPa_28],33.3
4,CC(C)C1=NCCc2ccc(NC(=O)c3cc(Br)c4cc(C(=N)N)ccc4c3)cc21 [uPa_26],15.7
5,CN1CCc2ccc(C3CC3c3ccc4cc(C(=N)N)ccc4c3)cc2C1C1CCC1 (stereo not given) [uPa_41],42
6,Nc1ccc2nc(N)ccc2c1 [uPa_23],> 104000
7,CC(C)C1c2cc(C3CC3c3cc(/C=C/C4CC4)c4cc(C(=N)N)ccc4c3)ccc2CCN1C (stereo not given) [uPa_43],9
8,N=C(N)c1ccc2cc(NS(=O)(=O)c3ccccc3)ccc2c1 [uPa_14],8700
9,CC(C)CN(CC(C)C)C(=O)c1ccc2ccc(N)nc2c1 [uPa_34],> 100000
10,N=C(N)c1ccc2cc(C(=O)Nc3ccc4c(c3)C(c3ccccc3)=NCC4)ccc2c1 [uPa_29],290
11,N=C(N)c1ccc2ccccc2c1 [Naphthalene-2-carboxamidine],5910
12,N#CC(CCOc1cccc2ccc(N)nc12)(c1ccccc1)c1ccccc1 [uPa_16],> 40000
13,C=CCNC(=O)Nc1cccc2ccc(N)nc12 [uPa_30],> 10000
14,COc1cc(C2CC2c2ccc3c(c2)C(C(C)C)N(C)CC3)cc2ccc(C(=N)N)cc12 (stereo not given) [uPa_42],94
15,COc1ccc2ccc(C(=N)N)cc2c1-c1cnn(C(C)C)c1 [uPa_11],4500
16,C#CCN(C)C(=O)c1ccc2ccc(N)nc2c1 [uPa_33],> 100000
17,Nc1cc2ccccc2cn1,> 30000
18,COC(=O)Nc1cc(C(=O)Nc2ccccc2)cc2ccc(C(=N)N)cc12 [uPa_36],18

row,SMILES,Ki [nM]
1,N=C(N)c1ccc2cc(/C=C/CCc3cccnc3)cc(Br)c2c1 [uPa_32],3080
2,N=C(N)c1ccc2cc(C(=O)Nc3ccc4c(c3)C(C3CCCCC3)=NCC4)ccc2c1 [uPa_31],66.3
3,N=C(N)NC(=O)c1ccc(Cl)c(S(N)(=O)=O)c1 [uPa_45],> 100000
4,N=C(N)NC(=O)c1nc(Cl)c(NCc2cc(Cl)cc(Cl)c2)nc1N [uPa_22],3570
5,N=C(N)c1ccc2cc(C#Cc3cccc(OC4CCCC4)c3)ccc2c1 [uPa_25],665
6,CS(=O)(=O)Nc1cc(CCc2ccccc2)cc2ccc(C(=N)N)cc12 [uPa_37],1490
7,COC/C=C/c1cc(C2CC2c2ccc3c(c2)C(C(C)C)N(C)CC3)cc2ccc(C(=N)N)cc12 (stereo not given) [uPa_39],21
8,Nc1cnc2ccccc2n1 [uPa_1],> 50000
9,CCOc1cc(OCC)c(OCC)cc1/C=C/c1cc(Br)c2cc(C(=N)N)ccc2c1 [uPa_38],777
10,COC(=O)Nc1ccc2nc(N)ccc2c1 [uPa_24],> 50000
11,COC(=O)Nc1cc(C(=O)Nc2ccc(CN)cc2)cc2ccc(C(=N)N)cc12 [uPa_17],0.892
12,N=C(N)c1ccc2cc(C(=O)Nc3ccccc3)cc(-c3ncccn3)c2c1 [uPa_21],7850
13,CN1CCc2ccc(C3CC3c3ccc4cc(C(=N)N)ccc4c3)cc2C1c1cccnc1 (stereo not given) [uPa_44],1250
14,CN1CCc2ccc(/C=C/c3ccc4cc(C(=N)N)ccc4c3)cc2C1C1CCCCC1 (stereo not given) [uPa_40],223
15,CC(C)Oc1ccc2cc(C(=N)N)ccc2c1 [uPa_5],7280
16,COC(=O)Nc1ccc2nc(C(=N)N)ccc2c1 [uPa_27],> 50000
17,CN(CC#N)C(=O)c1ccc2ccc(N)nc2c1 [uPa_35],> 100000
